According to ChEMBL document CHEMBL3603734, “Design and biological evaluation of novel quinolone-based metronidazole derivatives as potent Cu(2+) mediated DNA-targeting antibacterial agents” (Bioorg Med Chem Lett, 2015):
In brackets after ≈: the same amount, converted by molar mass.

How the values were obtained:
Escherichia coli = assay: Antibacterial activity against Escherichia coli JM109 after 24 hrs by microbroth dilution method; type: functional; conditions: JM109, 24 h
Bacillus = assay: Antibacterial activity against Bacillus proteus ATCC 13315 after 24 hrs by microbroth dilution method; type: functional; conditions: ATCC 13315, 24 h
Pseudomonas aeruginosa = assay: Antibacterial activity against Pseudomonas aeruginosa ATCC 27853 after 24 hrs by microbroth dilution method; type: functional; conditions: ATCC 27853, 24 h
Salmonella enterica = assay: Antibacterial activity against Salmonella enterica ATCC 14028 after 24 hrs by microbroth dilution method; type: functional; conditions: ATCC 14028, 24 h
Staphylococcus aureus [1] = assay: Antibacterial activity against methicillin-resistant Staphylococcus aureus N315 after 24 hrs by microbroth dilution method; type: functional; conditions: N315, 24 h
Staphylococcus aureus [2] = assay: Antibacterial activity against Staphylococcus aureus ATCC 25923 after 24 hrs by microbroth dilution method; type: functional; conditions: ATCC 25923, 24 h
Bacillus spizizenii = assay: Antibacterial activity against Bacillus subtilis ATCC 6633 after 24 hrs by microbroth dilution method; type: functional; conditions: ATCC 6633, 24 h
Micrococcus luteus = assay: Antibacterial activity against Micrococcus luteus ATCC 4698 after 24 hrs by microbroth dilution method; type: functional; conditions: NCTC 2665, 24 h
Cyberlindnera jadinii = assay: Antifungal activity against Candida utilis ATCC 9950 after 24 hrs by microbroth dilution method; type: functional; conditions: Williopsis jadinii, ATCC 9950, 24 h
Aspergillus flavus = assay: Antifungal activity against Aspergillus flavus ATCC 204304 after 24 hrs by microbroth dilution method; type: functional; conditions: ATCC 204304, 24 h
Saccharomyces cerevisiae = assay: Antifungal activity against Saccharomyces cerevisiae ATCC 9763 after 24 hrs by microbroth dilution method; type: functional; conditions: ATCC 9763, 24 h
Candida albicans = assay: Antifungal activity against Candida albicans ATCC 10231 after 24 hrs by microbroth dilution method; type: functional; conditions: ATCC 10231, 24 h
Pichia norvegensis = assay: Antifungal activity against Candida mycoderma ATCC 9888 after 24 hrs by microbroth dilution method; type: functional; conditions: ATCC 9888, 24 h
[3] = Ionization constant, pKa of the compound by UV spectroscopic analysis; type: physicochemical

Compound	MIC (Escherichia coli)	MIC (Bacillus)	MIC (Pseudomonas aeruginosa)	MIC (Salmonella enterica)	MIC (Staphylococcus aureus [1])	MIC (Staphylococcus aureus [2])	MIC (Bacillus spizizenii)	MIC (Micrococcus luteus)	MIC (Cyberlindnera jadinii)	MIC (Aspergillus flavus)	MIC (Saccharomyces cerevisiae)	MIC (Candida albicans)	MIC (Pichia norvegensis)	pKa [3]
CCn1cc(C(=O)O)c(=O)c2cc(F)c(N3CCN(CC4CO4)CC3)cc21 (stereo not drawn)	2 mg/L (≈ 5.33 µM)	4 mg/L (≈ 10.7 µM)	16 mg/L (≈ 42.6 µM)	16 mg/L (≈ 42.6 µM)	2 mg/L (≈ 5.33 µM)	8 mg/L (≈ 21.3 µM)	64 mg/L (≈ 170 µM)	8 mg/L (≈ 21.3 µM)	8 mg/L (≈ 21.3 µM)	1 mg/L (≈ 2.66 µM)	1 mg/L (≈ 2.66 µM)	4 mg/L (≈ 10.7 µM)	1 mg/L (≈ 2.66 µM)	
CCn1cc(C(=O)O)c(=O)c2cc(F)c(N3CCN(CC(O)Cn4c(C)nc(N5CCCC5)c4[N+](=O)[O-])CC3)cc21 (stereo not drawn)	128 mg/L (≈ 224 µM)	64 mg/L (≈ 112 µM)	4 mg/L (≈ 7 µM)	64 mg/L (≈ 112 µM)	32 mg/L (≈ 56 µM)	64 mg/L (≈ 112 µM)	64 mg/L (≈ 112 µM)	64 mg/L (≈ 112 µM)	32 mg/L (≈ 56 µM)	16 mg/L (≈ 28 µM)	8 mg/L (≈ 14 µM)	32 mg/L (≈ 56 µM)	16 mg/L (≈ 28 µM)	6.68
Cc1nc(N2CCOCC2)c([N+](=O)[O-])n1CC(O)CNC1CCN(c2c(F)cc3c(=O)c(C(=O)O)cn(C4CC4)c3c2Cl)C1 (stereo not drawn)	0.5 mg/L (≈ 0.789 µM)	0.25 mg/L (≈ 0.394 µM)	0.25 mg/L (≈ 0.394 µM)	2 mg/L (≈ 3.15 µM)	0.25 mg/L (≈ 0.394 µM)	0.5 mg/L (≈ 0.789 µM)	4 mg/L (≈ 6.31 µM)	2 mg/L (≈ 3.15 µM)	0.5 mg/L (≈ 0.789 µM)	1 mg/L (≈ 1.58 µM)	1 mg/L (≈ 1.58 µM)	2 mg/L (≈ 3.15 µM)	16 mg/L (≈ 25.2 µM)	6.57
CCn1cc(C(=O)O)c(=O)c2cc(F)c(N3CCN(CC(O)Cn4c([N+](=O)[O-])cnc4C)CC3)cc21 (stereo not drawn)	32 mg/L (≈ 63.7 µM)	16 mg/L (≈ 31.8 µM)	2 mg/L (≈ 3.98 µM)	16 mg/L (≈ 31.8 µM)	4 mg/L (≈ 7.96 µM)	16 mg/L (≈ 31.8 µM)	16 mg/L (≈ 31.8 µM)	16 mg/L (≈ 31.8 µM)	64 mg/L (≈ 127 µM)	32 mg/L (≈ 63.7 µM)	32 mg/L (≈ 63.7 µM)	128 mg/L (≈ 255 µM)	64 mg/L (≈ 127 µM)	6.57
Cc1nc(N2CCCC2)c([N+](=O)[O-])n1CC(O)CNC1CCN(c2c(F)cc3c(=O)c(C(=O)O)cn(C4CC4)c3c2Cl)C1 (stereo not drawn)	8 mg/L (≈ 12.9 µM)	0.5 mg/L (≈ 0.809 µM)	0.5 mg/L (≈ 0.809 µM)	8 mg/L (≈ 12.9 µM)	1 mg/L (≈ 1.62 µM)	1 mg/L (≈ 1.62 µM)	1 mg/L (≈ 1.62 µM)	4 mg/L (≈ 6.47 µM)	1 mg/L (≈ 1.62 µM)	2 mg/L (≈ 3.24 µM)	4 mg/L (≈ 6.47 µM)	2 mg/L (≈ 3.24 µM)	4 mg/L (≈ 6.47 µM)	6.54
Cc1nc(N2CCCCC2)c([N+](=O)[O-])n1CC(O)CNC1CCN(c2c(F)cc3c(=O)c(C(=O)O)cn(C4CC4)c3c2Cl)C1 (stereo not drawn)	32 mg/L (≈ 50.6 µM)	1 mg/L (≈ 1.58 µM)	1 mg/L (≈ 1.58 µM)	16 mg/L (≈ 25.3 µM)	2 mg/L (≈ 3.16 µM)	8 mg/L (≈ 12.7 µM)	8 mg/L (≈ 12.7 µM)	16 mg/L (≈ 25.3 µM)	2 mg/L (≈ 3.16 µM)	4 mg/L (≈ 6.33 µM)	8 mg/L (≈ 12.7 µM)	4 mg/L (≈ 6.33 µM)	8 mg/L (≈ 12.7 µM)	6.69
CCn1cc(C(=O)O)c(=O)c2cc(F)c(N3CCNCC3)cc21 [NORFLOXACIN]	2 mg/L (≈ 6.26 µM)	8 mg/L (≈ 25.1 µM)	4 mg/L (≈ 12.5 µM)	1 mg/L (≈ 3.13 µM)	2 mg/L (≈ 6.26 µM)	2 mg/L (≈ 6.26 µM)	1 mg/L (≈ 3.13 µM)	2 mg/L (≈ 6.26 µM)						
OC(Cn1cncn1)(Cn1cncn1)c1ccc(F)cc1F [FLUCONAZOLE]									8 mg/L (≈ 26.1 µM)	256 mg/L (≈ 836 µM)	16 mg/L (≈ 52.2 µM)	1 mg/L (≈ 3.27 µM)	4 mg/L (≈ 13.1 µM)	
Cc1nc(N2CCOCC2)c([N+](=O)[O-])n1CC(O)CN1CCN(c2cc3c(cc2F)c(=O)c(C(=O)O)cn3C2CC2)CC1 (stereo not drawn)	16 mg/L (≈ 26.7 µM)	4 mg/L (≈ 6.67 µM)	0.5 mg/L (≈ 0.834 µM)	8 mg/L (≈ 13.3 µM)	4 mg/L (≈ 6.67 µM)	16 mg/L (≈ 26.7 µM)	8 mg/L (≈ 13.3 µM)	16 mg/L (≈ 26.7 µM)	4 mg/L (≈ 6.67 µM)	8 mg/L (≈ 13.3 µM)	16 mg/L (≈ 26.7 µM)	32 mg/L (≈ 53.4 µM)	128 mg/L (≈ 213 µM)	6.77
O=C(O)c1cn(C2CC2)c2cc(N3CCNCC3)c(F)cc2c1=O [CIPROFLOXACIN]		1 mg/L (≈ 3.02 µM)	1 mg/L (≈ 3.02 µM)	1 mg/L (≈ 3.02 µM)			1 mg/L (≈ 3.02 µM)							
Cc1ncc([N+](=O)[O-])n1CC(O)CN1CCN(c2cc3c(cc2F)c(=O)c(C(=O)O)cn3C2CC2)CC1 (stereo not drawn)	16 mg/L (≈ 31.1 µM)	4 mg/L (≈ 7.77 µM)	0.5 mg/L (≈ 0.972 µM)	4 mg/L (≈ 7.77 µM)	2 mg/L (≈ 3.89 µM)	16 mg/L (≈ 31.1 µM)	4 mg/L (≈ 7.77 µM)	8 mg/L (≈ 15.5 µM)	32 mg/L (≈ 62.2 µM)	16 mg/L (≈ 31.1 µM)	32 mg/L (≈ 62.2 µM)	128 mg/L (≈ 249 µM)	64 mg/L (≈ 124 µM)	6.67
CCn1cc(C(=O)O)c(=O)c2cc(F)c(N3CCN(CC(O)Cn4c(C)nc(N5CCCCC5)c4[N+](=O)[O-])CC3)cc21 (stereo not drawn)	256 mg/L (≈ 437 µM)	128 mg/L (≈ 219 µM)	4 mg/L (≈ 6.83 µM)	128 mg/L (≈ 219 µM)	64 mg/L (≈ 109 µM)	64 mg/L (≈ 109 µM)	128 mg/L (≈ 219 µM)	128 mg/L (≈ 219 µM)	32 mg/L (≈ 54.6 µM)	32 mg/L (≈ 54.6 µM)	32 mg/L (≈ 54.6 µM)	32 mg/L (≈ 54.6 µM)	128 mg/L (≈ 219 µM)	6.75
CCn1cc(C(=O)O)c(=O)c2cc(F)c(N3CCN(CC(O)Cn4c(C)nc(N5CCOCC5)c4[N+](=O)[O-])CC3)cc21 (stereo not drawn)	64 mg/L (≈ 109 µM)	32 mg/L (≈ 54.5 µM)	2 mg/L (≈ 3.4 µM)	32 mg/L (≈ 54.5 µM)	4 mg/L (≈ 6.81 µM)	32 mg/L (≈ 54.5 µM)	16 mg/L (≈ 27.2 µM)	8 mg/L (≈ 13.6 µM)	16 mg/L (≈ 27.2 µM)	16 mg/L (≈ 27.2 µM)	16 mg/L (≈ 27.2 µM)	16 mg/L (≈ 27.2 µM)	64 mg/L (≈ 109 µM)	6.64
O=C(O)c1cn(C2CC2)c2cc(N3CCN(CC4CO4)CC3)c(F)cc2c1=O (stereo not drawn)	1 mg/L (≈ 2.58 µM)	4 mg/L (≈ 10.3 µM)	2 mg/L (≈ 5.16 µM)	2 mg/L (≈ 5.16 µM)	1 mg/L (≈ 2.58 µM)	4 mg/L (≈ 10.3 µM)	8 mg/L (≈ 20.6 µM)	2 mg/L (≈ 5.16 µM)	2 mg/L (≈ 5.16 µM)	1 mg/L (≈ 2.58 µM)	1 mg/L (≈ 2.58 µM)	2 mg/L (≈ 5.16 µM)	1 mg/L (≈ 2.58 µM)	
Cc1nc(N2CCCC2)c([N+](=O)[O-])n1CC(O)CN1CCN(c2cc3c(cc2F)c(=O)c(C(=O)O)cn3C2CC2)CC1 (stereo not drawn)	64 mg/L (≈ 110 µM)	32 mg/L (≈ 54.8 µM)	2 mg/L (≈ 3.43 µM)	32 mg/L (≈ 54.8 µM)	16 mg/L (≈ 27.4 µM)	64 mg/L (≈ 110 µM)	16 mg/L (≈ 27.4 µM)	128 mg/L (≈ 219 µM)	16 mg/L (≈ 27.4 µM)	32 mg/L (≈ 54.8 µM)	32 mg/L (≈ 54.8 µM)	64 mg/L (≈ 110 µM)	32 mg/L (≈ 54.8 µM)	6.72
Cc1nc(N2CCCCC2)c([N+](=O)[O-])n1CC(O)CN1CCN(c2cc3c(cc2F)c(=O)c(C(=O)O)cn3C2CC2)CC1 (stereo not drawn)	128 mg/L (≈ 214 µM)	128 mg/L (≈ 214 µM)	1 mg/L (≈ 1.67 µM)	64 mg/L (≈ 107 µM)	32 mg/L (≈ 53.5 µM)	128 mg/L (≈ 214 µM)	32 mg/L (≈ 53.5 µM)	64 mg/L (≈ 107 µM)	32 mg/L (≈ 53.5 µM)	8 mg/L (≈ 13.4 µM)	64 mg/L (≈ 107 µM)	64 mg/L (≈ 107 µM)	64 mg/L (≈ 107 µM)	6.9
O=C(O)c1cn(C2CC2)c2c(Cl)c(NC3CCN(CC4CO4)C3)c(F)cc2c1=O (stereo not drawn)	0.5 mg/L (≈ 1.19 µM)	0.25 mg/L (≈ 0.593 µM)	0.5 mg/L (≈ 1.19 µM)	1 mg/L (≈ 2.37 µM)	2 mg/L (≈ 4.74 µM)	0.5 mg/L (≈ 1.19 µM)	0.25 mg/L (≈ 0.593 µM)	0.25 mg/L (≈ 0.593 µM)	0.5 mg/L (≈ 1.19 µM)	0.5 mg/L (≈ 1.19 µM)	0.25 mg/L (≈ 0.593 µM)	2 mg/L (≈ 4.74 µM)	2 mg/L (≈ 4.74 µM)	
NC1CCN(c2c(F)cc3c(=O)c(C(=O)O)cn(C4CC4)c3c2Cl)C1 (stereo not drawn) [CLINAFLOXACIN]	1 mg/L (≈ 2.73 µM)	0.5 mg/L (≈ 1.37 µM)	1 mg/L (≈ 2.73 µM)	1 mg/L (≈ 2.73 µM)	1 mg/L (≈ 2.73 µM)	0.5 mg/L (≈ 1.37 µM)	0.5 mg/L (≈ 1.37 µM)	0.5 mg/L (≈ 1.37 µM)						
